Reference: publication PMC5963591, “Bitopic Binding Mode of an M1 Muscarinic Acetylcholine Receptor Agonist Associated with Adverse Clinical Trial Outcomes” (Molecular Pharmacology, 2018)

Tests used:
human mAChR M4 = biological target: T1, human mAChR M4 (Homo sapiens, UniProt P08173); assay: [3H]-NMS competition binding, CHO membranes, M4
T1 construct: purchased PerkinElmer; host or cells: CHO
Description: For competition binding experiments at M1, M2, M3, M4, and M5 mAChRs, CHO membranes were purchased from PerkinElmer. All experiments were performed in assay buffer of the following composition: 20 mM HEPES, 100 mM NaCl, and 10 mM MgCl2, pH 7.5, and used 10 µg protein/well in a total assay volume of 1 ml using deep well blocks. […] All assay incubations were initiated by the addition of membrane suspensions and deep well blocks were shaken for 5 minutes to ensure complete mixing. Incubation was then carried out for 2 hours at 21°C. Binding reactions were terminated by rapid filtration through GF/A filters (PerkinElmer) presoaked with 0.5% (w/v) polyethylenimine for 1 hour. Filters were then washed three times with 1 ml ice-cold assay buffer.
Inhibition binding data were curve-fit using GraphPad Prism 6 to derive the potency (IC50) of the test compound. The equilibrium dissociation constant (KI) of the test compound was then calculated with the Cheng–Prusoff equation: KI = IC50/[1 + ([L]/KD)] using the KD value derived separately from saturation binding studies.

M5 mAChR = biological target: T2, M5 mAChR (Homo sapiens, UniProt P08912); assay: ERK1/2 phosphorylation, CHO cells, M5; assay type: cell-based
T2 construct: expressed in transfected cells; host or cells: CHO

[1] = biological target: T3, M2 mAChR (isolated rat atria) (Rattus norvegicus, UniProt P10980); assay: Isolated rat atria, negative inotropic response; conditions: single experiment
T3 construct: from tissue; host or cells: left atria of adult Wistar rats
T3 sequence (P10980 1-466): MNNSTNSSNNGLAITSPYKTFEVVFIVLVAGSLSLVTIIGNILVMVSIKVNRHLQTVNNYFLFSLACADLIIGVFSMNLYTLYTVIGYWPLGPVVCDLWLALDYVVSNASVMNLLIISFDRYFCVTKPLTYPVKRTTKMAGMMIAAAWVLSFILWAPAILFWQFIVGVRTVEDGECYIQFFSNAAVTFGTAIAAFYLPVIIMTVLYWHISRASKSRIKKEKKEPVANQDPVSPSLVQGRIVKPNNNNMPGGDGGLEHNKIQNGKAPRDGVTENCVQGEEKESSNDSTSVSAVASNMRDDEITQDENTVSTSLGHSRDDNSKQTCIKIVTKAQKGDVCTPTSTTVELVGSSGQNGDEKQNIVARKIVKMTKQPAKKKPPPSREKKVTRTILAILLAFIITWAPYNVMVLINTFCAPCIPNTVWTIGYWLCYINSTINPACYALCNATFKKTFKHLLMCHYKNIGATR
Description: Adult Wistar rats were humanely euthanized and the left atria and the ileum were placed in an organ bath containing oxygenated Tyrode solution. Measurement of negative inotropic responses in atria or contraction of ileum was performed as described by [Lambrecht et al. (1989)]. For atrial responses, ligands were administered for 5 minutes at 32°C in McEwen’s buffer (pH 7.4) in a bath volume of 10 ml. […] For rat ileum experiments, ligands were administered for 5 minutes at 32°C in Krebs’ buffer (pH 7.4) in a bath volume of 10 ml. Contraction of ileum as a percentage of methacholine-induced contraction was measured, and antagonistic effects were measured by inhibition of methacholine-induced responses.

human M1 mAChR [2] = biological target: T4, human M1 mAChR (Homo sapiens, UniProt P11229); conditions: 20 nM [^3H]-GSK1034702
T4 sequence (P11229 1-460): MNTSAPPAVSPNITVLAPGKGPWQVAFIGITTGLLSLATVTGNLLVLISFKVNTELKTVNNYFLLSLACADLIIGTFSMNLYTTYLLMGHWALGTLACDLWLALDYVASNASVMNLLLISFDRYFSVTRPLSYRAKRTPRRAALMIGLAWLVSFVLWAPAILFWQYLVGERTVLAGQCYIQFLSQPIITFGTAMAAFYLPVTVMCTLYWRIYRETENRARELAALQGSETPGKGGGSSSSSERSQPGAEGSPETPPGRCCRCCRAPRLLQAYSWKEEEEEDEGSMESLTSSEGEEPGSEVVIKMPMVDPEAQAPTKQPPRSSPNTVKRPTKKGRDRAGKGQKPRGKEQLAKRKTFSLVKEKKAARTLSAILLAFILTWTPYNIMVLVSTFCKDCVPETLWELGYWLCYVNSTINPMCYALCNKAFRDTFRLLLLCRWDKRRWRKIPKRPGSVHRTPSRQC

rodents = system: rodents; design: method as in Budzik et al., 2010; conditions: ref Budzik et al., 2010; cited from earlier work
humans = system: humans; design: method as in Nathan et al., 2013; conditions: ref Nathan et al., 2013; cited from earlier work
human M1 mAChR [3] = biological target: T4, human M1 mAChR; assay: IP-One (IP1) accumulation assay, CHO Flp-In human M1 cells; assay type: cell-based; design: expressed in transfected cells; host or cells: CHO Flp-In
Description: Stimulation of IP accumulation was determined using the Cisbio IP-One Gq assay kit per the manufacturer’s instructions. […] CHO Flp-In cells stably expressing the human M1 mAChR were grown to confluence in T75 cell culture flasks at 37°C. Cells were washed with warm phosphate-buffered saline and detached using phosphate-buffered saline with 0.1 M EDTA. Detached cells were centrifuged at 1000g and the cells were resuspended in stimulation buffer.
All IP-One stimulations were terminated by the addition of 3 μl/well IP1-d2 solution, followed by 3 μl/well anti–IP1-cryptate solution and incubation for 1 hour at room temperature with shaking.
Functional concentration-response curves were fitted according to a four-parameter logistic equation (to determine minimum and maximum asymptotes, LogEC50, and slope; GraphPad Prism 6). […] In the absence of antagonist ([B] = 0), this equation becomes the standard four-parameter logistic equation for fitting agonist concentration-response data.

human M1 mAChR [4] = biological target: T4, human M1 mAChR; assay: [3H]-NMS binding interaction studies with BQCA; design: expressed in transfected cells; host or cells: CHO Flp-In; conditions: increasing concentrations of BQCA
Description: Prior to the experiment, cells were washed with 100 μl phosphate-buffered saline. […] Binding was terminated by rapid aspiration followed by two washes with 200 μl ice-cold 0.9% NaCl. Bound radioactivity was determined by liquid scintillation (Ultima Gold; PerkinElmer, Boston, MA) counting. Nonspecific binding was determined in the presence of 10 μM atropine.

T1 sequence (P08173 whole entry): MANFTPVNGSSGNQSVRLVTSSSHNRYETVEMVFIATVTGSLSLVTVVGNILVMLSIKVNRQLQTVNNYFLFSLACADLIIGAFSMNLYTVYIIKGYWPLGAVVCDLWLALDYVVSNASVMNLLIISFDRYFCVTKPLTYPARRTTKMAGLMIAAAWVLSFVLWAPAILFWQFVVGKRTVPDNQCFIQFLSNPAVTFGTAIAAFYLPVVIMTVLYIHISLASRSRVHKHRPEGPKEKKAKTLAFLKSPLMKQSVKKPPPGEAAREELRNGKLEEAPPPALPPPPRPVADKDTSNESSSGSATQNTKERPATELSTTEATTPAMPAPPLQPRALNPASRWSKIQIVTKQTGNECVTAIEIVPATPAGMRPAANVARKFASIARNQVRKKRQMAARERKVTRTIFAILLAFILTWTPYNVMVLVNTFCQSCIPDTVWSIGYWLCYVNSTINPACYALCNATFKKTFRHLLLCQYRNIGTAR
T2 sequence (P08912 whole entry): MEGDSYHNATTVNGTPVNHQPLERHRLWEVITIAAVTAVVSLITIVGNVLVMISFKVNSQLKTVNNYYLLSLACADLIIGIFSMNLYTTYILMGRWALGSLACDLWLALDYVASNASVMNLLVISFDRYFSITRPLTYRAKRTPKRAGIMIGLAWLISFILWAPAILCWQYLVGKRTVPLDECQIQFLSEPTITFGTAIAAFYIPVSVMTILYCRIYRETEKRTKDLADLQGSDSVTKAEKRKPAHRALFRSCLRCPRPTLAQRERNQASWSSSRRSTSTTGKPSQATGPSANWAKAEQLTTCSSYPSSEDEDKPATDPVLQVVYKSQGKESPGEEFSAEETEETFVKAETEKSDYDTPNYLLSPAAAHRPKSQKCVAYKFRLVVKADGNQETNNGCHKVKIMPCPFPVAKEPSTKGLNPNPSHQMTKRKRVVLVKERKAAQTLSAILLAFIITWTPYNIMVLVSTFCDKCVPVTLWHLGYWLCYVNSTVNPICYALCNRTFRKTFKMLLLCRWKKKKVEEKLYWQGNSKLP

- Ki (human mAChR M4): 2000 nM
- functional activity in ERK1/2 phosphorylation (M5 mAChR): partial agonist activity
- IC50 ([1]; methacholine 1 μM, read-out: IC50, inhibition of methacholine-induced responses in rat atria): 8 µM
- potency, negative inotropic response in rat atria [1]: micromolar potency
- displacement of specific [^3H]-GSK1034702 binding (human M1 mAChR [2]): fully displaced
- Emax (human M1 mAChR [3]; % of the maximal response elicited by ACh, read-out: IP1 accumulation, maximal response relative to ACh): ~90%
- IP1 Emax (human M1 mAChR [3]; CHO Flp-In human M1 cells): 90.1 ± 2.9
- EC50 (human M1 mAChR [3]; CHO Flp-In human M1 cells, read-out: IP1 pEC50 (converted)): 79.4 nM
- IP1 Accumulation ΔLog10(τ/KA) (human M1 mAChR [3]; normalized to reference ligand ACh): 0.3 ± 0.2
- IP1 Accumulation Log10(τ/KA) (human M1 mAChR [3]; transduction coefficient, wild-type M1 mAChR): 7.4 ± 0.2
- modulation by BQCA of the displacement of [^3H]-NMS (human M1 mAChR [4]): not modulated
Structure (SMILES): Cc1cc(F)c2[nH]c(=O)n(C3CCN(C4CCOCC4)CC3)c2c1 [GSK1034702, 7-fluoro-5-methyl-3-[1-(oxan-4-yl)piperidin-4-yl]-1H-benzimidazol-2-one]
- maximal negative inotropic response in rat atria ([1]; relative to methacholine): maximal response equivalent to that of methacholine
- effect on scopolamine-induced amnesia (rodents): reversed scopolamine-induced amnesia
- adverse effects (humans): induced gastrointestinal adverse effects
- effect on cognitive function (humans): positive effects on cognitive function
